Entries after “also recorded” stand apart in the source; their conditions may differ. Square brackets hold non-standard residues; d marks the D form. Peptide text beside a SMILES is read from it.
Key:
[1] = Thioflavin-T assay of the peptides' own amyloid fibril formation; assay type: physicochemical; conditions: 100 μmol/L peptide, 37° C., up to 10 days
Experimental: All peptides were HFIP treated and reconstituted in 100 mM Tris buffer (pH 7.4) to obtain a 100 μmol/L concentration. […] Peptides were incubated over a period of 10 days at 37° C. Samples containing 15 μg of incubated peptides were taken at indicated intervals and fluorescence was measured as previously described in a Perkin-Elmer LS-50B fluorescence spectrophotometer (Perkin Elmer Instruments, Shelton, Conn.) (Wisniewski et al., “Acceleration of Alzheimer's Fibril Formation by Apolipoprotein E in vitro,” Am. J. Pathol. 145:1030-1035 (1994); Golabek et al., “The Interaction Between Apolipoprotein E and Alzheimer's Amyloid β-peptide is Dependent on β-peptide Conformation,” J. Biol. Chem. 271:10602-10606 (1996); which are hereby incorporated by reference in their entirety). The mean±standard deviation (“SD”) for three separate experiments was plotted in FIG. 1. Differences in amount of fibrils formed by the different peptides were evaluated by means of a repeated measures ANOVA, followed by a Tukey HSD post-hoc test using Statistica (version 6.1) (StatSoft Inc., Tulsa, Okla.).

apoE3 = target: T1, apoE3 (Homo sapiens, UniProt P02649); test: Thioflavin-T aggregation inhibition: apoE3-promoted Aβ1-42 fibril formation; assay type: biochemical; conditions: for relative reduction in fluorescence: apoE3 preincubated with Aβ12-28P, then added to Aβ1-42
T1 construct: made in house; host or cells: primary forebrain astrocytes of GFAP-human apoE3 transgenic mice
Experimental: Recombinant apoE3 and apoE4 were purchased from Calbiochem Corp. (San Diego, Calif.). Lipidated apoE3 and apoE4 complexes were prepared from primary cultures of astrocytes derived from Tg mice in which human apoE3 or apoE4 were expressed under the control of the astrocyte-specific glial fibrillary acidic protein (GFAP) promoter as described previously (Fagan et al., “Unique Lipoproteins Secreted by Primary Astrocytes from Wild Type, ApoE (−/−), and Human ApoE Transgenic Mice,” J. Biol. Chem. 274:30001-30007 (1999); DeMattos et al., “Purification and Characterization of Astrocyte-secreted Apolipoprotein E and J-Containing Lipoproteins from Wild-type and Human ApoE Transgenic Mice,” Neurochemistry International 39:415-425 (2001); Sun et al., “Glial Fibrillary Acidic Protein-apolipoprotein E (apoE) Transgenic Mice: Astrocyte-specific Expression and Differing Biological Effects of Astrocyte-secreted ApoE3 and ApoE4 Lipoproteins,” J. Neurosci. 18:3261-3272 (1998); which are hereby incorporated by reference in their entirety). […] The purity of the apoE preparation was assessed by SDS-PAGE.
Aβ1-40 and Aβ1-42 were studied for comparison. […] Samples containing 15 μg of incubated peptides were taken at indicated intervals and fluorescence was measured as previously described in a Perkin-Elmer LS-50B fluorescence spectrophotometer (Perkin Elmer Instruments, Shelton, Conn.) (Wisniewski et al., “Acceleration of Alzheimer's Fibril Formation by Apolipoprotein E in vitro,” Am. J. Pathol. 145:1030-1035 (1994); Golabek et al., “The Interaction Between Apolipoprotein E and Alzheimer's Amyloid β-peptide is Dependent on β-peptide Conformation,” J. Biol. Chem. 271:10602-10606 (1996); which are hereby incorporated by reference in their entirety). […] Differences in amount of fibrils formed by the different peptides were evaluated by means of a repeated measures ANOVA, followed by a Tukey HSD post-hoc test using Statistica (version 6.1) (StatSoft Inc., Tulsa, Okla.). […]

Aβ1-42 = target: T2, Aβ1-42 (Homo sapiens, UniProt P05067); test: Thioflavin-T assay: peptide alone added to Aβ1-42 (no apoE); assay type: biochemical; conditions: same concentration of Aβ12-28P
T2 construct: made in house; host or cells: chemical peptide synthesis

apoE4 = target: T3, apoE4 (Homo sapiens, UniProt P02649, C130R); test: Toxicity rescue: neutralizing apoE4's effect on Aβ1-42 neurotoxicity, MTT assay in SK-N-SH cells; assay type: cell-based; conditions: Aβ1-42 100 μmol/L, apoE4 0.5 μmol/L preincubated with 0.5 μmol/L peptide; two day p<0.05, 6 day p<0.01
T3 construct: made in house; host or cells: primary forebrain astrocytes of GFAP-human apoE4 transgenic mice
Experimental: All experiments were run in triplicate. The results from cell culture neurotoxicity studies were evaluated by one-way analysis of variance, followed by a Dunnett's test as a post hoc analysis.

T1 sequence (P02649 19-317): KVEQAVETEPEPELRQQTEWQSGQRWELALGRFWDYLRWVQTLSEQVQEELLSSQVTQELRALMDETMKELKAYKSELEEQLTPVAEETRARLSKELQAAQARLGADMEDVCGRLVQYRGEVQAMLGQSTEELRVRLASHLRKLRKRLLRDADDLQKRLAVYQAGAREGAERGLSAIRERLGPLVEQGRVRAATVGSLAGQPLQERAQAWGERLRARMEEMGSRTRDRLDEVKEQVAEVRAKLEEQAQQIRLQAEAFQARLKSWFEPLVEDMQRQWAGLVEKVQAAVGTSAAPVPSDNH
T3 sequence (P02649 19-317 C130R): as the sequence (P02649 19-317) above, with C112R counted along it
T2 sequence (P05067 672-713): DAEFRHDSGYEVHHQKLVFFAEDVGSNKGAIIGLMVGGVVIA

CC(=O)N[C@@H](C(=O)N[C@H](Cc1c[nH]cn1)C(=O)N[C@H](Cc1c[nH]cn1)C(=O)N[C@H](CCC(N)=O)C(=O)N[C@H](CCCCN)C(=O)N[C@H](CC(C)C)C(=O)N1CCC[C@@H]1C(=O)N[C@H](Cc1ccccc1)C(=O)N[C@H](Cc1ccccc1)C(=O)N[C@H](C)C(=O)N[C@H](CCC(=O)O)C(=O)N[C@H](CC(=O)O)C(=O)N[C@@H](C(=O)NCC(=O)N[C@H](CO)C(=O)N[C@H](CC(N)=O)C(=O)N[C@H](CCCCN)C(N)=O)C(C)C)C(C)C [Aβ12-28P] (Ac-[dV][dH][dH][dQ][dK][dL][dP][dF][dF][dA][dE][dD][dV]G[dS][dN][dK]-NH2)
fibril formation (Thioflavin-T fluorescence) [1]: did not form any fibrils; also recorded: non-fibrillogenic; also recorded: No fibrils were formed
relative reduction in fluorescence (apoE3; after 24 h of incubation): 14.5%
relative reduction in fluorescence (apoE3; day six): 48.3%
chaperoning effect of apoE3 on Aβ1-42 fibril formation (apoE3; apoE3 preincubated with equimolar Aβ12-28P, p<0.05): significantly reduced
effect of peptide alone on Aβ1-42 fibrillogenesis (Aβ1-42): did not have any significant effect
rescue of cell viability from apoE4-enhanced Aβ1-42 toxicity (apoE4): significant rescue of the cell viability; also recorded: could be neutralized

— patent publication US7632816B2, “Treatment of Alzheimer amyloid deposition” (New York University, priority 2003, dated 2009)
